In patent US7008911B2, “Non-surfactant solubilizing agent” (Ecolab, Inc., priority 2002, dated 2006):

Experiments:
Format in all cases: physicochemical
[1] = Alcohol amine added to aqueous PPh solution until single phase observed; conditions: aqueous PPh (34-37 wt % PPh, 39-42 wt % water), room temperature, Formulations B-E
[2] = Alcohol amine added to aqueous EPh solution until single phase observed; conditions: for amount added until a single phase solution was observed: 100 grams total, room temperature
[3] = Alcohol amine added to aqueous benzyl alcohol solution until single phase observed; conditions: aqueous benzyl alcohol (37 wt %, water 42 wt %), room temperature, Formulation F
[4] = listed as of Table 4 with 1 % Eph in H2O, Eph 1 wt % normalized
[5] = listed as of Table 4 with 2.5 % Eph in H2O, Eph 2 wt % normalized
[6] = listed as of Table 4 with 5 % Eph in H2O, Eph 4 wt % normalized
[7] = listed as of Table 4 with 10 % Eph in H2O, Eph 7-8 wt % normalized
[8] = listed as of Table 4 with 15 % Eph in H2O, Eph 10-12 wt % normalized
[9] = listed as of Table 4 with 20 % Eph in H2O, Eph 14-15 wt % normalized
[10] = listed as of Table 4 with 30 % Eph in H2O, Eph 21-23 wt % normalized
[11] = listed as of Table 4 with 50 % Eph in H2O, Eph 36-40 wt % normalized
[12] = listed as of Table 4 with 75 % Eph in H2O, Eph 58-64 wt % normalized

Row | Compound | alcohol amine at single phase, normalized on total weight % [1] | amount added until a single phase solution was observed ([2]; 1 % Eph in H2O) | amount added until a single phase solution was observed ([2]; 2.5 % Eph in H2O) | amount added until a single phase solution was observed ([2]; 5 % Eph in H2O) | amount added until a single phase solution was observed ([2]; 10 % Eph in H2O) | amount added until a single phase solution was observed ([2]; 15 % Eph in H2O) | amount added until a single phase solution was observed ([2]; 20 % Eph in H2O) | amount added until a single phase solution was observed ([2]; 30 % Eph in H2O) | amount added until a single phase solution was observed ([2]; 50 % Eph in H2O) | amount added until a single phase solution was observed ([2]; 75 % Eph in H2O) | alcohol amine at single phase, normalized to 100 weight % of water, alcohol amine and EPh [2, 4] | alcohol amine at single phase, normalized to 100 weight % of water, alcohol amine and EPh [2, 5] | alcohol amine at single phase, normalized to 100 weight % of water, alcohol amine and EPh [2, 6] | alcohol amine at single phase, normalized to 100 weight % of water, alcohol amine and EPh [2, 7] | alcohol amine at single phase, normalized to 100 weight % of water, alcohol amine and EPh [2, 8] | alcohol amine at single phase, normalized to 100 weight % of water, alcohol amine and EPh [2, 9] | alcohol amine at single phase, normalized to 100 weight % of water, alcohol amine and EPh [2, 10] | alcohol amine at single phase, normalized to 100 weight % of water, alcohol amine and EPh [2, 11] | alcohol amine at single phase, normalized to 100 weight % of water, alcohol amine and EPh [2, 12] | alcohol amine at single phase, normalized on total weight % [3]
1 | CC(O)CN (stereo not shown) [MIPA, monoisopropanolamine] | 21 wt % | 3.5 Grams | 16 Grams | 26.8 Grams | 32.2 Grams | 33.5 Grams | 32.9 Grams | 31.1 Grams | 26 Grams | 17.5 Grams | 3 wt % | 14 wt % | 21 wt % | 24 wt % | 25 wt % | 25 wt % | 24 wt % | 20 wt % | 15 wt % | 21 wt %
2 | NCCO [MEA, monoethanolamine] | 25 wt % | 2.3 Grams | 12.7 Grams | 26.9 Grams | 40.5 Grams | 45.4 Grams | 44 Grams | 40 Grams | 34 Grams | 26.1 Grams | 2 wt % | 11 wt % | 21 wt % | 29 wt % | 32 wt % | 30 wt % | 29 wt % | 26 wt % | 20 wt % | 
3 | CC(C)(N)CO [AMP, 2-amino-2-methyl-1-propanol] | 21 wt % | 4.8 Grams | 12.3 Grams | 21.5 Grams | 26.8 Grams | 28.7 Grams | 29.2 Grams | 29 Grams | 26.7 Grams | 17.8 Grams | 5 wt % | 11 wt % | 18 wt % | 21 wt % | 22 wt % | 23 wt % | 23 wt % | 22 wt % | 15 wt % | 
